Measured values from PubChem BioAssay (NCI).
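GI50: concentration for 50% inhibition of growth. TGI is the concentration that stops growth completely.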

Experiments:
Test in all cases: NCI tumour cell line growth inhibition, 384-well format
[1] = system: 786-0 renal
[2] = system: A498 renal
[3] = system: A549 NSCLC
[4] = system: ACHN renal
[5] = system: BT-549 breast
[6] = system: CAKI-1 renal
[7] = system: CCRF-CEM leukemia
[8] = system: COLO 205 colon
[9] = system: DU-145 prostate
[10] = system: EKVX NSCLC
[11] = system: HCC-2998 colon
[12] = system: HCT-116 colon
[13] = system: HCT-15 colon
[14] = system: HL-60(TB) leukemia
[15] = system: HOP-62 NSCLC
[16] = system: HOP-92 NSCLC
[17] = system: HS 578T breast
[18] = system: HT29 colon
[19] = system: IGROV1 ovarian
[20] = system: KM12 colon
[21] = system: LOX IMVI melanoma
[22] = system: M14 melanoma
[23] = system: MALME-3M melanoma
[24] = system: MCF7 breast
[25] = system: MDA-MB-231 breast
[26] = system: MDA-MB-435 melanoma
[27] = system: MDA-MB-468 breast
[28] = system: MOLT-4 leukemia
[29] = system: NCI-H226 lung
[30] = system: NCI-H23 lung
[31] = system: NCI-H322M lung
[32] = system: NCI-H460 NSCLC
[33] = system: NCI-H522 lung
[34] = system: NCI/ADR-RES ovarian
[35] = system: OVCAR-3 ovarian
[36] = system: OVCAR-4 ovarian
[37] = system: OVCAR-5 ovarian
[38] = system: OVCAR-8 ovarian
[39] = system: PC-3 prostate
[40] = system: RPMI-8226 leukemia
[41] = system: RXF 393 renal
[42] = system: SF-268 CNS
[43] = system: SF-295 CNS
[44] = system: SF-539 CNS
[45] = system: SK-MEL-28 melanoma
[46] = system: SK-MEL-5 melanoma
[47] = system: SK-OV-3 ovarian
[48] = system: SN12C renal
[49] = system: SNB-19 CNS
[50] = system: SNB-75 CNS
[51] = system: SR leukemia
[52] = system: SW-620 colon
[53] = system: T-47D breast
[54] = system: TK-10 renal
[55] = system: U251 glioblastoma
[56] = system: UACC-257 melanoma
[57] = system: UACC-62 melanoma
[58] = system: UO-31 renal

Cc1cnc(Nc2ccc(OCCN3CCCC3)cc2)nc1Nc1cccc(S(=O)(=O)NC(C)(C)C)c1
GI50 [1]: 1270 nM | TGI [1]: 2550 nM | GI50 [2]: 909 nM | TGI [2]: 3090 nM | GI50 [3]: 1370 nM | TGI [3]: 2730 nM | GI50 [4]: 1300 nM | TGI [4]: 2850 nM | GI50 [5]: 1620 nM | TGI [5]: 3010 nM | GI50 [6]: 593 nM | TGI [6]: 1710 nM | GI50 [7]: 1400 nM | TGI [7]: 2750 nM | GI50 [8]: 1820 nM | TGI [8]: 3280 nM | GI50 [9]: 1080 nM | TGI [9]: 2870 nM | GI50 [10]: 1770 nM | TGI [10]: 3980 nM | GI50 [11]: 1390 nM | TGI [11]: 2860 nM | GI50 [12]: 635 nM | TGI [12]: 2070 nM | GI50 [13]: 1660 nM | TGI [13]: 4310 nM | GI50 [14]: 464 nM | TGI [14]: 1340 nM | GI50 [15]: 2000 nM | TGI [15]: 4870 nM | GI50 [16]: 1020 nM | TGI [16]: 2220 nM | GI50 [17]: 837 nM | TGI [17]: 2270 nM | GI50 [18]: 1420 nM | TGI [18]: 2790 nM | GI50 [19]: 1080 nM | TGI [19]: 2650 nM | GI50 [20]: 418 nM | TGI [20]: 5550 nM | GI50 [21]: 815 nM | TGI [21]: 2050 nM | GI50 [22]: 1020 nM | TGI [22]: 2500 nM | GI50 [23]: 1450 nM | TGI [23]: 3040 nM | GI50 [24]: 1160 nM | TGI [24]: 2680 nM | GI50 [25]: 1060 nM | TGI [25]: 2350 nM | GI50 [26]: 2610 nM | TGI [26]: 11600 nM | GI50 [27]: 1200 nM | TGI [27]: 2640 nM | GI50 [28]: 428 nM | TGI [28]: 1480 nM | GI50 [29]: 740 nM | TGI [29]: 1940 nM | GI50 [30]: 1450 nM | TGI [30]: 3350 nM | GI50 [31]: 1240 nM | TGI [31]: 7230 nM | GI50 [32]: 1880 nM | TGI [32]: 11700 nM | GI50 [33]: 523 nM | TGI [33]: 1680 nM | GI50 [34]: 6430 nM | TGI [34]: 18300 nM | GI50 [35]: 1270 nM | TGI [35]: 4510 nM | GI50 [36]: 1600 nM | TGI [36]: 3650 nM | GI50 [37]: 1670 nM | TGI [37]: 5630 nM | GI50 [38]: 1540 nM | TGI [38]: 2920 nM | GI50 [39]: 1440 nM | TGI [39]: 8680 nM | GI50 [40]: 624 nM | TGI [40]: 1780 nM | GI50 [41]: 707 nM | TGI [41]: 1660 nM | GI50 [42]: 1900 nM | TGI [42]: 4220 nM | GI50 [43]: 2740 nM | TGI [43]: 8670 nM | GI50 [44]: 1510 nM | TGI [44]: 2860 nM | GI50 [45]: 3610 nM | TGI [45]: 11600 nM | GI50 [46]: 1320 nM | TGI [46]: 2630 nM | GI50 [47]: 604 nM | TGI [47]: 1840 nM | GI50 [48]: 1540 nM | TGI [48]: 4490 nM | GI50 [49]: 2970 nM | TGI [49]: 8890 nM | GI50 [50]: 869 nM | TGI [50]: 2160 nM | GI50 [51]: 372 nM | TGI [51]: 1360 nM | GI50 [52]: 1570 nM | TGI [52]: 3640 nM | GI50 [53]: 1780 nM | TGI [53]: 5210 nM | GI50 [54]: 1550 nM | TGI [54]: 3190 nM | GI50 [55]: 2570 nM | TGI [55]: 12400 nM | GI50 [56]: 1730 nM | TGI [56]: 3120 nM | GI50 [57]: 1000 nM | TGI [57]: 2670 nM | GI50 [58]: 1770 nM | TGI [58]: 3170 nM
